# Experimental data: patent publication EP4417602A1, “SUBSTITUTED PYRAZOLE CARBOXAMIDES, SALTS THEREOF AND THEIR USE AS HERBICIDALLY ACTIVE SUBSTANCES” (Bayer AG, priority 2023, dated 2024)
# How the values were obtained:
# [1] = system: ALOMY; experiment: C. Herbicidal pre-emergence action, weed and crop plants (Tables C); format: in vivo, Alopecurus myosuroides
# Source text: (§1) Seeds of mono- and dicotyledonous weed plants and crop plants were sown, in plastic or organic planting pots, in sandy loam and covered with soil. The compounds according to the invention, formulated in the form of wettable powders (WP) or as emulsifiable concentrates (EC), were applied to the surface of the covering soil as aqueous suspension or emulsion, with the addition of 0.5% of an additive, at an application rate of 6001 of water/ha (converted). Following treatment, the pots were placed in a greenhouse and kept under optimum growth conditions for the test plants. The visual grading of the damage to the test plants was carried out after ca. 3 weeks in comparison to untreated controls (herbicidal effect in percent (%): 100% effect = plants have died off, 0% effect = as control plants). Tables C1 to C12 below show the effects of selected compounds of the general formula (I) according to table 1 on various harmful plants and an application rate corresponding to 320 g/ha or below obtained by the experimental procedure mentioned above. Table C1: pre-emergence activity at 320g/ha against KCHSC in %
# [2] = system: SETVI; experiment: A. Herbicidal pre-emergence action on harmful plants (Tables A); format: in vivo, Setaria viridis; settings: visual grading after ca. 3 weeks vs untreated controls, 100% = plants have died off, 0% = as control plants
# How it was run: (§2)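 Values are visual percent damage relative to untreated controls, scored ca. 3 weeks after the compound was sprayed on the covering soil of sown pots (sandy loam) at rates up to 1280 g/ha, formulated as WP or EC with 0.5% additive.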
# [3] = system: ECHCG; experiment: C. Herbicidal pre-emergence action, weed and crop plants (Tables C); format: in vivo, Echinochloa crus-galli
# How it was run: (§3)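 Seeds were sown in sandy loam and covered with soil. WP or EC formulations were sprayed onto the soil surface as aqueous suspension or emulsion with 0.5% additive, at rates of 320 g/ha or below. Plants were kept in a greenhouse, and damage was scored visually after about 3 weeks as % effect versus untreated controls (100% = dead, 0% = like control).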
# [4] = system: MATIN; experiment: A. Herbicidal pre-emergence action on harmful plants (Tables A); format: in vivo, Matricaria inodora; settings: visual grading after ca. 3 weeks vs untreated controls, 100% = plants have died off, 0% = as control plants
# How it was run: as §2
# [5] = system: GLXMA; experiment: F. Post-emergence effects on crop plants (Tables F); format: in vivo, Glycine max; settings: crop plant
# How it was run: (§4)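 Plants were grown in sandy loam in a greenhouse and sprayed post-emergence at the single-leaf stage, 2–3 weeks after sowing. Visual damage was scored after ca. 3 weeks against untreated controls (0% = as control, 100% = dead).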
# [6] = system: POAAN; experiment: A. Herbicidal pre-emergence action on harmful plants (Tables A); format: in vivo, Poa annua
# How it was run: as §2
# [7] = system: ECHCG; experiment: as above; format: in vivo, Echinochloa crus-galli; settings: visual grading after ca. 3 weeks vs untreated controls, 100% = plants have died off, 0% = as control plants
# How it was run: as §2
# [8] = system: ZEAMX; experiment: F. Post-emergence effects on crop plants (Tables F); format: in vivo, Zea mays; settings: crop plant
# How it was run: as §4
# [9] = system: BRSNW; experiment: as above; format: in vivo, Brassica napus; settings: crop plant
# How it was run: as §4
# [10] = system: MATIN; experiment: C. Herbicidal pre-emergence action, weed and crop plants (Tables C); format: in vivo, Matricaria inodora; settings: application rate 320 g/ha; Table C8
# Source text: as §1
# [11] = system: VIOTR; experiment: as above; format: in vivo, Viola tricolor
# How it was run: as §3
# [12] = system: GLXMA; experiment: D. Pre-emergence effects on crop plants (Tables D); format: in vivo, Glycine max; settings: crop plant
# How it was run: (§5)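 Seeds sown in sandy loam and covered; WP or EC formulations sprayed onto the soil surface as aqueous suspension/emulsion with 0.5% additive, at 320 g/ha or below. Greenhouse-grown; visual damage scored after ca. 3 weeks against untreated controls (0% = as control, 100% = plants dead).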
# [13] = system: ZEAMX; experiment: D. Pre-emergence effects on crop plants (Tables D); format: in vivo, Zea mays; settings: crop plant; application rate 80 g/ha; Table D1b
# How it was run: as §5
# [14] = system: ALOMY; experiment: A. Herbicidal pre-emergence action on harmful plants (Tables A); format: in vivo, Alopecurus myosuroides
# How it was run: as §2
# [15] = system: DIGSA; experiment: as above; format: in vivo, Digitaria sanguinalis
# How it was run: as §2
# [16] = application rate 320 g/ha, Table C2a
# [17] = application rate 320 g/ha, Table C6a
# [18] = application rate 80 g/ha, Table A7c
# [19] = application rate 320 g/ha, Table A7b
# [20] = application rate 1280 g/ha, visual grading after ca. 3 weeks vs untreated controls, 100% = plants have died off, 0% = as control plants
# [21] = application rate 320 g/ha, Table C12a
# [22] = application rate 80 g/ha, Table D4b
# [23] = application rate 80 g/ha, Table C12b
# [24] = application rate 1280 g/ha, Table A9a
# [25] = application rate 320 g/ha, Table A12b
# [26] = application rate 1280 g/ha, Table A12a
# [27] = application rate 80 g/ha, Table C6b
SMILES,"pre-emergence activity against ALOMY [1, 16]",pre-emergence activity against SETVI ([2]; application rate 320 g/ha),pre-emergence activity against SETVI ([2]; application rate 1280 g/ha),"pre-emergence activity against ECHCG [3, 17]",pre-emergence activity against MATIN ([4]; application rate 320 g/ha),pre-emergence activity against MATIN ([4]; application rate 1280 g/ha),post-emergence activity against GLXMA in % ([5]; application rate 80 g/ha),"pre-emergence activity against POAAN [6, 18]","pre-emergence activity against POAAN [6, 19]","pre-emergence activity against POAAN [6, 20]",pre-emergence activity against ECHCG ([7]; application rate 320 g/ha),pre-emergence activity against ECHCG ([7]; application rate 1280 g/ha),post-emergence activity against ZEAMX in % ([8]; application rate 80 g/ha),post-emergence activity against ZEAMX in % ([8]; application rate 320 g/ha),pre-emergence activity against MATIN [10],"pre-emergence activity against VIOTR [11, 21]",post-emergence activity against BRSNW in % ([9]; application rate 320 g/ha),"pre-emergence activity against ALOMY [14, 24]","pre-emergence activity against DIGSA [15, 25]","pre-emergence activity against DIGSA [15, 26]",other results
COCc1nn(C)cc1C(=O)N1CCCC1Cc1ccccc1F (racemic) [Example I-002],90%,90%,90%,90%,90%,90%,20%,100%,100%,100%,100%,100%,0%,0%,80%,80%,–,–,–,–,pre-emergence activity against ECHCG ([7]; application rate 80 g/ha): 90%; post-emergence activity against BRSNW in % ([9]; application rate 80 g/ha): 10%
C=C(c1ccccc1F)C1CCCN1C(=O)c1cn(C)nc1COC (racemic) [Example I-023],100%,90%,90%,90%,90%,90%,–,100%,100%,100%,90%,100%,0%,20%,80%,80%,0%,90%,90%,90%,"pre-emergence activity against GLXMA [12, 22]: 0%; pre-emergence activity against GLXMA ([12]; application rate 320 g/ha, Table D4a): 0%; pre-emergence activity against ZEAMX [13]: 0%; pre-emergence activity against VIOTR [11, 23]: 80%"
COCc1nn(C(=O)OC(C)(C)C)cc1C(=O)N1CCCC1Cc1ccccc1F (racemic) [Example I-040],80%,90%,90%,90%,–,90%,0%,–,100%,100%,90%,100%,0%,0%,80%,–,0%,90%,90%,100%,"pre-emergence activity against ECHCG [3, 27]: 80%; pre-emergence activity against GLXMA [12, 22]: 0%; pre-emergence activity against ZEAMX [13]: 20%"
"COCc1nn(C)cc1C(=O)N1CCCC1Cc1ccccc1F (single isomer, unassigned) [Example I-003]",100%,100%,100%,90%,90%,90%,–,100%,100%,100%,100%,100%,–,–,80%,90%,0%,100%,100%,100%,"pre-emergence activity against ALOMY ([1]; application rate 80 g/ha, Table C2b): 90%; pre-emergence activity against SETVI ([2]; application rate 80 g/ha): 100%; pre-emergence activity against ECHCG [3, 27]: 90%; post-emergence activity against GLXMA in % ([5]; application rate 320 g/ha): 10%; pre-emergence activity against ECHCG ([7]; application rate 80 g/ha): 100%; pre-emergence activity against VIOTR [11, 23]: 80%; pre-emergence activity against ALOMY ([14]; application rate 320 g/ha, Table A9b): 100%; pre-emergence activity against DIGSA ([15]; application rate 80 g/ha, Table A12c): 100%"
